Consider five molecules from paper PMC6151589, “Identification of Optically Active Pyrimidine Derivatives as Selective 5-HT2C Modulators” (Molecules : A Journal of Synthetic Chemistry and Natural …, 2017).

Experiment [1] addresses T1, 5-HT2A (Homo sapiens, UniProt P28223).
T1 construct: gene HTR2A; human recombinant receptor; crude membrane fractions of transfected HEK293 or CHO cells
In words: biochemical. More on the design: species or system HEK293 or CHO; competitive radioligand binding on crude membranes, filtration and scintillation counting. As for the experimental part:
Eleven dilutions (5 × assay concentration) of the test and reference compounds (Table S1) were prepared in standard binding buffer (50 mM tris(hydroxymethyl)-aminomethane-HCl (Tris-HCl), 10 mM MgCl2, 1 mM ethylenediaminetetraacetate (EDTA), pH 7.4) by serial dilution: 0.05 nM, 0.5 nM, 1.5 nM, 5 nM, 15 nM, 50 nM, 150 nM, 500 nM, 1.5 μM, 5 μM, and 50 μM. The radioligand (Table S3) was diluted to five times the assay concentration in standard binding buffer. Aliquots ([…]) of the radioligand were dispensed into the wells of a 96-well plate containing […] of standard binding buffer. Triplicate aliquots ([…]) of the test and reference compound dilutions were then added. Finally, crude membrane fractions ([…]) of cells (HEK293 or CHO) expressing human recombinant receptors were dispensed into each well. A total of […] of the reaction mixtures was incubated at room temperature and shielded from light for 1.5 h, and was then harvested by rapid filtration onto Whatman GF/B glass fiber filters presoaked with 0.3% polyethyleneimine, by using a 96-well Brandel harvester (Gaithersburg, MD, USA). Four rapid washes were performed with chilled standard binding buffer (500 mL) to decrease nonspecific binding. Filters were placed in 6 mL scintillation tubes and allowed to dry overnight. The next day, 4-mL of EcoScint scintillation cocktail (National Diagnostics) was added to each tube. The tubes were capped, labeled, and counted by liquid scintillation counting. The filter mats were dried, and the scintillant was melted onto the filters, then the radioactivity retained on the filters was counted in a Microbeta scintillation counter. The IC50 values were obtained by using the Prism 4.0 program (GraphPad Software, La Jolla, CA, USA) and were converted into Ki values. Each compound was tested at least in triplicate. With each enantiomer (R)- or (S)-5d and 5e in hand, the optically active pyrimidine derivatives 4d–4e were synthesized following the same reaction sequences (Scheme 3). Finally, compounds 4d and 4e were assessed for their binding affinity to 5-HT2 receptor subtypes by radioligand binding assays. […] A further evaluation of these compounds for other 5-HT receptor subtypes was also performed and is provided in the supplementary data (Table S2). […] Considering the potencies and selectivities of 4, we can conclude that (R,R)-4e would be a viable candidate for a selective 5-HT2C modulator.

Experiment [2] concerns the target T1, 5-HT2A. In words: radioligand displacement, membranes. It is filed as binding. From the text: radioligand displacement, membranes on 5-HT2A
(In a radioligand displacement assay an active substance lowers the binding of a labelled ligand.)

In another experiment the target is T2, 5-HT2C (Homo sapiens, UniProt P28335).
T2 construct: gene HTR2C; human recombinant receptor; crude membrane fractions of transfected cells (CHO-K1; HEK293 or CHO)
T2 sequence (P28335 33-458): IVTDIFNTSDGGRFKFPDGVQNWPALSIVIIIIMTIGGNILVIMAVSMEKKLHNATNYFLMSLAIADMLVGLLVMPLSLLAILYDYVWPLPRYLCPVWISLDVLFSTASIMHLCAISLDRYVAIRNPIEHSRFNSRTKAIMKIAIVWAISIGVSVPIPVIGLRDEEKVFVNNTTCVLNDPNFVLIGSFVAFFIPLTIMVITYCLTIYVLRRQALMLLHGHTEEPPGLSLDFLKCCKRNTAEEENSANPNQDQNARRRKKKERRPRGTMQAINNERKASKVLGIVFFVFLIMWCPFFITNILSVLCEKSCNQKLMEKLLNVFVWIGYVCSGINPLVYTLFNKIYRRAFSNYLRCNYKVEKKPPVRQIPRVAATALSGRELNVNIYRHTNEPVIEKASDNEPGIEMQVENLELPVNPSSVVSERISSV
Nature of the experiment: [3H]mesulergine displacement, membranes. The conditions noted are these: pH […] MgCl2, room temperature; reference compound, may stem from the authors' earlier study (ref […]). The class given is binding. An excerpt: [3H]mesulergine displacement, membranes on 5-HT2C

T1 sequence (P28223 whole entry): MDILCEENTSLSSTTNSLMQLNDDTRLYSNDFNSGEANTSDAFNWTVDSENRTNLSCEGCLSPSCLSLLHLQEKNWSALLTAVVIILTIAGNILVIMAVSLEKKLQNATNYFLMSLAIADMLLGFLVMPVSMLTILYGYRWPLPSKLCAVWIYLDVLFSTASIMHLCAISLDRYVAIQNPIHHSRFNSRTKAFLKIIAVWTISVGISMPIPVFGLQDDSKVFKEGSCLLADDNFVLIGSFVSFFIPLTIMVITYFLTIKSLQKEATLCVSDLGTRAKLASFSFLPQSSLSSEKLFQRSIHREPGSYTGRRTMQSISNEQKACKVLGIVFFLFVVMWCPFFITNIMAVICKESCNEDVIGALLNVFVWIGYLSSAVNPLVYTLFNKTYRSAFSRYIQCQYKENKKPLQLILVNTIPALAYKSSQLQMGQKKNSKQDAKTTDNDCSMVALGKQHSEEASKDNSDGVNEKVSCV

As for `C[C@H](Oc1nc(N2CCNC[C@H]2C)ncc1F)c1ccc(F)cc1` [(S,R)-4e, 5-Fluoro-4-((S)-1-(4-fluorophenyl)ethoxy)-2-((R)-2-methylpiperazin-1-yl)pyrimidine], the inhibition at 10 µM at 5-HT2A [1] turned out to be 64.8%. On 5-HT2A [2], this molecule showed a Ki of 1020 nM.

On 5-HT2A [1], `C[C@H](Cc1cccc(F)c1)Oc1nc(N2CCNC[C@H]2C)ncc1F` [compound 3, pyrimidine analogue 3] showed an inhibition at 10 µM of 95.6%. Further, the Ki is 128 nM at 5-HT2A [2] and 0.7 nM at 5-HT2C.

Take `C[C@@H]1CNCCN1c1ncc(F)c(O[C@H](C)c2cccc(F)c2)n1` [(R,R)-4d, 5-Fluoro-4-((R)-1-(3-fluorophenyl)ethoxy)-2-((R)-2-methylpiperazin-1-yl)pyrimidine]: the inhibition at 10 µM at 5-HT2A [1] came out at 93.3%. The molecule further came in with an inhibition constant Ki on 5-HT2A [2] of 222 nM.

Molecule `C[C@H](Oc1nc(N2CCNC[C@H]2C)ncc1F)c1cccc(F)c1` [(S,R)-4d, 5-Fluoro-4-((S)-1-(3-fluorophenyl)ethoxy)-2-((R)-2-methylpiperazin-1-yl)pyrimidine] had an inhibition at 10 µM on 5-HT2A [1] of 82.4%. The molecule further displayed a Ki on 5-HT2A [2] of 475 nM.

With `C[C@@H]1CNCCN1c1ncc(F)c(O[C@H](C)c2ccc(F)cc2)n1` [(R,R)-4e, 5-Fluoro-4-((R)-1-(4-fluorophenyl)ethoxy)-2-((R)-2-methylpiperazin-1-yl)pyrimidine], the “5-HT2A / %Binding” value on 5-HT2A [2] (pH 7.4, 10 mM MgCl2, room temperature, single concentration, 10 μM) is on record as 0.9%.

Broadly, the inhibition is the percentage by which the read-out fell short of the control. Lower therefore signals little suppression. Usually Ki stands for the equilibrium dissociation constant of an inhibitor or competing ligand from its target. Low readings indicate higher affinity, high ones lower affinity.
